Measured values taken from patent US9650339B2, “Inhibitors of histone demethylases” (Gilead Sciences, Inc., priority 2013, dated 2017).

Columns and labels:
KDM4C = target: T1, KDM4C (Homo sapiens, UniProt Q9H3R0); assay: Histone lysine demethylase immunofluorescence assay, U2OS cells transfected with KDM4C; type: cell-based; details: U2OS cells transfected with pCMVHA KDM4C; mark detected H3K9me3; 20 hours
T1 construct: Full length; host or cells: U2OS
T1 sequence (Q9H3R0 1-1056): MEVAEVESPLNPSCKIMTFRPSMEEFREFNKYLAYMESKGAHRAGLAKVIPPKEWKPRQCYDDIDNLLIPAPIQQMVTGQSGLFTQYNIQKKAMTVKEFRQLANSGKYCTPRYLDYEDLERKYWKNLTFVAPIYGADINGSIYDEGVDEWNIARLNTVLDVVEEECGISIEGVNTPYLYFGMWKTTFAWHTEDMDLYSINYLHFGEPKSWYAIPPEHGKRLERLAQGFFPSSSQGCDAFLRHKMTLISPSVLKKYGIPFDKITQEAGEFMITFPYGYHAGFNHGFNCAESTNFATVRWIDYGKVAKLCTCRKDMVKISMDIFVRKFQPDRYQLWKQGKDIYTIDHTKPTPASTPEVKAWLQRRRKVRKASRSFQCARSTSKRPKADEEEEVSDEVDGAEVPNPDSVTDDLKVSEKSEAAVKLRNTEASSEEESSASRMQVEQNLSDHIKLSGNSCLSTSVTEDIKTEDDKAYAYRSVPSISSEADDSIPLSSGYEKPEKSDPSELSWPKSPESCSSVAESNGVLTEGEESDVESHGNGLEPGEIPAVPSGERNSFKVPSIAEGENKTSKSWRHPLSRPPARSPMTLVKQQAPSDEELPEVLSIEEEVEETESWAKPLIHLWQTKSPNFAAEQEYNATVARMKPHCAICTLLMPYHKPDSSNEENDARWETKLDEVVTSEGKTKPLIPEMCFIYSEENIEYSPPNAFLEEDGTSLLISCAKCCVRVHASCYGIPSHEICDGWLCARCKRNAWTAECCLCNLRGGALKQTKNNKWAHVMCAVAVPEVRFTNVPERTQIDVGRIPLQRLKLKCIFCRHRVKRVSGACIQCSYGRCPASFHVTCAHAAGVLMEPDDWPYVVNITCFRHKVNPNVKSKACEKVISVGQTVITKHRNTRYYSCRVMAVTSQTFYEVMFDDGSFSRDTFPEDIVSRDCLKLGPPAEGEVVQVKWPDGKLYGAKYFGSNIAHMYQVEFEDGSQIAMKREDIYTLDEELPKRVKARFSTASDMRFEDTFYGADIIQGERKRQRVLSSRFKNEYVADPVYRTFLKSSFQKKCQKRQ
Summary of the method: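 U2OS cells were transiently transfected with HA-tagged demethylase and reseeded after 6 h into compound-containing DMEM/10% FBS for 20 h. Cells were fixed in formaldehyde and immunostained for HA and the relevant histone methyl mark, then imaged. IC50 is based on mean mark staining in HA+ transfected cells.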

KDM3B (JMJD1B) = target: T2, KDM3B (JMJD1B) (Homo sapiens, UniProt Q7LBC6); assay: Histone lysine demethylase AlphaLISA assay, KDM3B; type: biochemical; details: read-out: KDM3B HDME Inhibition IC50
T2 construct: 842-1761; host or cells: Bac (baculovirus system)
T2 sequence (Q7LBC6 842-1761): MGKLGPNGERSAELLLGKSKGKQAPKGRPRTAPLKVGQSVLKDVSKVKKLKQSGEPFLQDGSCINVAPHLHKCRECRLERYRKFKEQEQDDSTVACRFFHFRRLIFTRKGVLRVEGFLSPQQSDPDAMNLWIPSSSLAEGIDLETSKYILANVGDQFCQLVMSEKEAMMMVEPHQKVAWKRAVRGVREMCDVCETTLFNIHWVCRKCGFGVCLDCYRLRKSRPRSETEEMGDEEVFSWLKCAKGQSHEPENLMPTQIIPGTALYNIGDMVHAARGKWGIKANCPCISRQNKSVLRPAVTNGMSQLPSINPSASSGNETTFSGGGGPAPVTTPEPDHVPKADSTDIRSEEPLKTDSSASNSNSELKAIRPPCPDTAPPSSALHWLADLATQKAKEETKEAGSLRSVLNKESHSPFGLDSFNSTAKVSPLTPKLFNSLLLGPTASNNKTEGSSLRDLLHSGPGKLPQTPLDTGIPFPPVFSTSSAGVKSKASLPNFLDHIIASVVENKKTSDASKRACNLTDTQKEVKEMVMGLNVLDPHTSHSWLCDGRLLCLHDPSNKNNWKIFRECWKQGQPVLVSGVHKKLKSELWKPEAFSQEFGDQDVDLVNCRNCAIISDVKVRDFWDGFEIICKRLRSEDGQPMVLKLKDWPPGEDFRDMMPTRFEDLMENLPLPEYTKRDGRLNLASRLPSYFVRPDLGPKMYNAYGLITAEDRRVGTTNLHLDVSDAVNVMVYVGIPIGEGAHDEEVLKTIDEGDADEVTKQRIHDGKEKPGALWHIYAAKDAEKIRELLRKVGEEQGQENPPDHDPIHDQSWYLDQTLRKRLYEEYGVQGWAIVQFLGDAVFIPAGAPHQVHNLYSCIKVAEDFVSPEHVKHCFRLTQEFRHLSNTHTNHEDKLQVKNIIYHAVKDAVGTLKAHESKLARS
Description: Assays are performed analogously to the protocol described by PerkinElmer (Roy et al. PerkinElmer Technical Note: AlphaLISA #12, April 2011)
Enzymes are dissolved in enzyme buffer and incubated for 10 min before being added to 3% DMSO solutions of compounds in enzyme buffer. Incubated for another 10 minutes, before substrate solution is added and the reaction mixture is incubated at room temperature. 10 μL acceptor beads, suspended in Epigenetic Buffer (Perkin Elmer AL008) from stock, are added and the suspension is incubated in the dark at room temperature, before a suspension of streptavidin donor beads (Perkin Elmer 6760002) in Epigenetic Buffer is added. After incubation at room temperature in the dark the plates are read. […]
BK9M2: Biotin-ARTKQTAR(KMe2)STGGKAPRKQ-NH2 (AnaSpec 64359) […]
Substrate Solution: Substrate, 25 μM L-Asc, and 10 μM α-KG in Buffer A.

Row | IC50 (KDM4C) [nM] | IC50 (KDM3B (JMJD1B)) [nM] | SMILES
1 | 250 to 2500 | > 2500 | CN(C)CC1CCC(CNCc2cc(/C=N/C3CC3)ccn2)CC1 (stereo not shown) [Compound 46, N-[(2-{[({4-[(dimethylamino)-methyl]cyclohexyl}-methyl)amino]-methyl}pyridin-4-yl)methylidene]-cyclopropanamine]
2 | 250 to 2500 | > 2500 | CN(C)CCCCCNCc1cc(/C=N/C2CC2)ccn1 [Compound 47, N-{[2-({[5-(dimethylamino)-pentyl]amino}-methyl)pyridin-4-yl]methylidene}-cyclopropanamine]
3 | > 2500 | > 2500 | CCN(CC)CCCCNC(=O)CNCc1cc(/C=N/C2CC2)ccn1 [Compound 48, 2-[({4-[N-cyclopropyl-carboximidoyl]pyridin-2-yl}methyl)amino]-N-[4-(diethylamino)-butyl]acetamide]
4 | 250 to 2500 | > 2500 | O=C(CNCc1cc(/C=N/C2CC2)ccn1)N1CCC[C@@H]1CN1CCCC1 [Compound 49, 2-[({4-[N-cyclopropyl-carboximidoyl]pyridin-2-yl}methyl)amino]-1-[(2R)-2-(pyrrolidin-1-ylmethyl)pyrrolidin-1-yl]ethan-1-one]
5 | > 2500 | > 2500 | CCN(CCC#N)C(=O)CNCc1cc(/C=N/C2CC2)ccn1 [Compound 50, N-(2-cyanoethyl)-2-[({4-[N-cyclopropyl-carboximidoyl]-pyridin-2-yl}methyl)amino]-N-ethylacetamide]
6 | > 2500 | > 2500 | CCN1CCCC1CNC(=O)CNCc1cc(/C=N/C2CC2)ccn1 (stereo not shown) [Compound 51, 2-[({4-[N-cyclopropyl-carboximidoyl]-pyridin-2-yl}methyl)-amino]-N-[(1-ethylpyrrolidin-2-yl)methyl]acetamide]
7 | > 2500 | > 2500 | CN(CCCn1cccn1)C(=O)CNCc1cc(/C=N/C2CC2)ccn1 [Compound 52, 2-[({4-[N-cyclopropyl-carboximidoyl]-pyridin-2-yl}methyl)amino]-N-methyl-N-[3-(1H-pyrazol-1-yl)propyl]acetamide]
8 | > 2500 | > 2500 | O=C(CNCc1cc(/C=N/C2CC2)ccn1)NC1CCN(Cc2ccccc2)C1 (stereo not shown) [Compound 53, N-(1-benzylpyrrolidin-3-yl)-2-[({4-[N-cyclopropyl-carboximidoyl]pyridin-2-yl}methyl)amino]-acetamide]
9 | > 2500 | 250 to 2500 | CN1CCN(C(=O)CNCc2cc(/C=N/C3CC3)ccn2)CC1 [Compound 54, 2-[({4-[N-cyclopropyl-carboximidoyl]-pyridin-2-yl}methyl)amino]-1-(4-methylpiperazin-1-yl)ethan-1-one]
10 | > 2500 | > 2500 | O=C(CNCc1cc(/C=N/C2CC2)ccn1)N1CCC(Cc2ccccc2)CC1 [Compound 55, 1-(4-benzylpiperidin-1-yl)-2-[({4-[N-cyclopropyl-carboximidoyl]-pyridin-2-yl}methyl)amino]-ethan-1-one]
11 | > 2500 | > 2500 | C#CCN(C)C(=O)CNCc1cc(/C=N/C2CC2)ccn1 [Compound 56, 2-[({4-[N-cyclopropyl-carboximidoyl]-pyridin-2-yl}methyl)amino]-N-methyl-N-(prop-2-yn-1-yl)acetamide]
12 | 250 to 2500 | > 2500 | CCN(CC)CCCCNCc1cc(/C=N/CCO)ccn1 [Compound 61, 2-[{[2-({[4-(diethylamino)-butyl]amino}-methyl)pyridin-4-yl]methylidene}-amino]ethan-1-ol]
13 | 250 to 2500 | > 2500 | CCN(CC)CCCCNCc1cc(/C=N/CC(F)(F)C(F)(F)F)ccn1 [Compound 62, {[2-({[4-(diethylamino)-butyl]amino}methyl)pyridin-4-yl]methylidene} (2,2,3,3,3-pentafluoropropyl)-amine]
14 | 250 to 2500 | > 2500 | CCN(CCN(C)C)C(=O)CNCc1cc(/C=N/CCC2CCCCC2)ccn1 [Compound 63, 2-[({4-[[(2-cydohexylethyl)-imino]methyl]pyridin-2-yl}methyl)amino]-N-[2-(dimethylamino)-ethyl]-N-ethylacetamide]
